Measurements published in ChEMBL document CHEMBL3832761, “MMV Pathogen Box Bioactivity Data” (2017).
Converted amounts (≈) assume the structure as drawn.

Legend:
Format in all cases: functional
[1] = system: Mycobacterium tuberculosis; test: AntiMycobacterium tuberculosis activity Non-Replicating form: Average MIC90 (uM)
[2] = system: Mycobacterium tuberculosis; test: AntiMycobacterium tuberculosis activity 2-week 7H9/DPPC/cholesterol/BSA/Tx MIC (uM); conditions: 336 h
[3] = system: Mycobacterium tuberculosis; test: AntiMycobacterium tuberculosis activity 1-week 7H9/DPPC/cholesterol/BSA/Tx MIC (uM); conditions: 168 h
[4] = system: Mycobacterium tuberculosis; test: AntiMycobacterium tuberculosis activity 2-week GAST/Fe MIC (uM); conditions: 336 h
[5] = system: Mycobacterium tuberculosis; test: AntiMycobacterium tuberculosis activity 1-week 7H9/cholesterol/BSA/Tx MIC (uM); conditions: 168 h
[6] = system: Mycobacterium tuberculosis; test: AntiMycobacterium tuberculosis activity 2-week Alamar Blue 7H9/cholesterol/BSA/Tx MIC (uM); conditions: 336 h
[7] = system: Mycobacterium tuberculosis; test: AntiMycobacterium tuberculosis activity day 21 MIC99 in 7H9/2.5mM butyrate/pH6/0.1mM nitrite MIC99 (uM); conditions: 504 h
[8] = system: HepG2; test: HepG2 CC50 (uM) Cytotoxicity; conditions: Homo sapiens
[9] = system: Mycobacterium tuberculosis; test: AntiMycobacterium tuberculosis activity 1-week 7H9/ADC/Tw MIC (uM); conditions: 168 h
[10] = system: Mycobacterium tuberculosis; test: AntiMycobacterium tuberculosis activity 2-week 7H9/ADC/Tw MIC (uM); conditions: 336 h
[11] = system: Mycobacterium tuberculosis; test: AntiMycobacterium tuberculosis activity 1-week 7H9/glucose/BSA/Tx MIC (uM); conditions: 168 h
[12] = system: Mycobacterium tuberculosis; test: AntiMycobacterium tuberculosis activity 2-week Alamar Blue 7H9/ADC/Tw MIC (uM); conditions: 336 h
[13] = system: Mycobacterium tuberculosis; test: AntiMycobacterium tuberculosis activity Replicating form: Average MIC90 (uM)
[14] = system: Mycobacterium tuberculosis; test: AntiMycobacterium tuberculosis activity day 21 in 7H9/2.5mM butyrate/pH6/0.1mM nitrite MIC90 (uM); conditions: 504 h
[15] = system: Mycobacterium tuberculosis; test: AntiMycobacterium tuberculosis activity 2-week 7H9/glucose/BSA/Tx MIC (uM); conditions: 336 h
[16] = system: Mycobacterium tuberculosis; test: AntiMycobacterium tuberculosis activity 1-week GAST/Fe MIC (uM); conditions: 168 h
[17] = system: Mycobacterium tuberculosis; test: (§1) AntiMycobacterium tuberculosis activity day 10 in 7H9/2.5mM butyrate/pH6/0.1mM nitrite MIC90 (uM); conditions: 240 h
[18] = system: Mycobacterium tuberculosis; test: as §1; conditions: 240 h; remark: listed apart in the source

SMILES | MIC90 [1] | MIC [2] | MIC [3] | MIC [4] | MIC [5] | MIC [6] | MIC [7] | CC50 [8] | MIC [9] | MIC [10] | MIC [11] | MIC [12] | MIC90 [13] | MIC90 [14] | MIC [15] | MIC [16] | MIC90 [17] | MIC90 [18]
CC(=O)NCC1CN(c2ccc(-c3ccc(CO)cc3)c(F)c2)C(=O)O1 (configuration not stated) | 0.32 µM (≈ 0.115 µg/mL) | 0.6 µM (≈ 0.215 µg/mL) | 0.39 µM (≈ 0.14 µg/mL) | 0.3 µM (≈ 0.108 µg/mL) | 0.39 µM (≈ 0.14 µg/mL) | 0.39 µM (≈ 0.14 µg/mL) | 1.5 µM (≈ 0.538 µg/mL) | > 100 µM | 0.39 µM (≈ 0.14 µg/mL) | 0.6 µM (≈ 0.215 µg/mL) | 0.6 µM (≈ 0.215 µg/mL) | 0.39 µM (≈ 0.14 µg/mL) | 0.49 µM (≈ 0.176 µg/mL) | 0.78 µM (≈ 0.28 µg/mL) | 0.6 µM (≈ 0.215 µg/mL) | 0.1 µM (≈ 0.0358 µg/mL) | 0.39 µM (≈ 0.14 µg/mL) | 1.5 µM (≈ 0.538 µg/mL)
Cc1cc(C)c2cc(C(=O)NC3CCCCCCC3)[nH]c2c1 | 0.01 µM (≈ 0.00298 µg/mL) | < 0.02 µM | < 0.02 µM | < 0.02 µM | < 0.02 µM | < 0.02 µM | > 50 µM | > 100 µM | < 0.02 µM | 0.02 µM (≈ 0.00597 µg/mL) | < 0.02 µM | 0.02 µM (≈ 0.00597 µg/mL) | 0.01 µM (≈ 0.00298 µg/mL) | ≤ 0.04 µM | < 0.02 µM | < 0.02 µM | ≤ 0.04 µM | > 50 µM
Cc1nn(Cc2ccccc2)c(Cl)c1C(=O)NC1CCCCCC1 | 5.96 µM (≈ 2.06 µg/mL) | 6.25 µM (≈ 2.16 µg/mL) | 4.7 µM (≈ 1.63 µg/mL) | 0.39 µM (≈ 0.135 µg/mL) | 1.56 µM (≈ 0.54 µg/mL) | 2.3 µM (≈ 0.796 µg/mL) | 25 µM (≈ 8.65 µg/mL) | > 100 µM | 19 µM (≈ 6.57 µg/mL) | 50 µM (≈ 17.3 µg/mL) | 37 µM (≈ 12.8 µg/mL) | 6.25 µM (≈ 2.16 µg/mL) | > 100 µM | 25 µM (≈ 8.65 µg/mL) | > 50 µM | 0.39 µM (≈ 0.135 µg/mL) | 3.12 µM (≈ 1.08 µg/mL) | 3.12 µM (≈ 1.08 µg/mL)
CC(=O)NCC1CN(c2ccc(-c3ccc(CNCc4cn[nH]n4)cc3)c(F)c2)C(=O)O1 (configuration not stated) | 0.31 µM (≈ 0.136 µg/mL) | 0.3 µM (≈ 0.132 µg/mL) | 0.1 µM (≈ 0.0438 µg/mL) | 0.15 µM (≈ 0.0658 µg/mL) | 0.3 µM (≈ 0.132 µg/mL) | 0.39 µM (≈ 0.171 µg/mL) | 1.5 µM (≈ 0.658 µg/mL) | > 100 µM | 0.3 µM (≈ 0.132 µg/mL) | 0.39 µM (≈ 0.171 µg/mL) | 0.2 µM (≈ 0.0877 µg/mL) | 0.39 µM (≈ 0.171 µg/mL) | 0.51 µM (≈ 0.224 µg/mL) | 0.39 µM (≈ 0.171 µg/mL) | 0.3 µM (≈ 0.132 µg/mL) | 0.1 µM (≈ 0.0438 µg/mL) | 0.19 µM (≈ 0.0833 µg/mL) | 1.5 µM (≈ 0.658 µg/mL)
CCc1ccc([C@@H]2C[C@H](C(F)(F)F)n3ncc(C(=O)NCc4ccc(OC)cc4)c3N2)cc1 | 1.13 µM (≈ 0.518 µg/mL) | 0.3 µM (≈ 0.138 µg/mL) | 0.2 µM (≈ 0.0917 µg/mL) | 0.1 µM (≈ 0.0458 µg/mL) | 0.2 µM (≈ 0.0917 µg/mL) | 0.39 µM (≈ 0.179 µg/mL) | > 50 µM | 50.6 µM | 0.78 µM (≈ 0.358 µg/mL) | 1.56 µM (≈ 0.715 µg/mL) | 0.6 µM (≈ 0.275 µg/mL) | 1.56 µM (≈ 0.715 µg/mL) | 0.24 µM (≈ 0.11 µg/mL) | 12.5 µM (≈ 5.73 µg/mL) | 0.78 µM (≈ 0.358 µg/mL) | 0.1 µM (≈ 0.0458 µg/mL) | 6.25 µM (≈ 2.87 µg/mL) | > 50 µM
O=C(Nc1nnc(-c2ccc(Cl)cc2)o1)c1cccc(C(F)(F)F)c1 | 2.71 µM (≈ 0.997 µg/mL) | 19 µM (≈ 6.99 µg/mL) | 4.7 µM (≈ 1.73 µg/mL) | 0.07 µM (≈ 0.0257 µg/mL) | 19 µM (≈ 6.99 µg/mL) | 12.5 µM (≈ 4.6 µg/mL) | 50 µM (≈ 18.4 µg/mL) | 9 µM | 25 µM (≈ 9.19 µg/mL) | 25 µM (≈ 9.19 µg/mL) | 3.13 µM (≈ 1.15 µg/mL) | 25 µM (≈ 9.19 µg/mL) | 27.2 µM (≈ 10 µg/mL) | 12.5 µM (≈ 4.6 µg/mL) | 6.25 µM (≈ 2.3 µg/mL) | 0.05 µM (≈ 0.0184 µg/mL) | 12.5 µM (≈ 4.6 µg/mL) | > 50 µM
Cc1ccc2nc(Cl)c(CNCc3cccs3)cc2c1 | 93.7 µM (≈ 28.4 µg/mL) | > 50 µM | 12.5 µM (≈ 3.79 µg/mL) | 1.56 µM (≈ 0.472 µg/mL) | 19 µM (≈ 5.75 µg/mL) | 37 µM (≈ 11.2 µg/mL) | > 50 µM | > 100 µM | > 50 µM | > 50 µM | > 50 µM | 50 µM (≈ 15.1 µg/mL) | > 100 µM | > 50 µM | > 50 µM | 0.78 µM (≈ 0.236 µg/mL) | > 50 µM | > 50 µM
CCCn1nnc(NC(=O)COc2ccc(C3CCCCC3)cc2)n1 | 98.5 µM (≈ 33.8 µg/mL) | 37 µM (≈ 12.7 µg/mL) | 19 µM (≈ 6.53 µg/mL) | 12.5 µM (≈ 4.29 µg/mL) | 6.25 µM (≈ 2.15 µg/mL) | 25 µM (≈ 8.59 µg/mL) | 50 µM (≈ 17.2 µg/mL) | > 100 µM | 19 µM (≈ 6.53 µg/mL) | 37 µM (≈ 12.7 µg/mL) | 19 µM (≈ 6.53 µg/mL) | 37 µM (≈ 12.7 µg/mL) | 40.1 µM (≈ 13.8 µg/mL) | 50 µM (≈ 17.2 µg/mL) | 37 µM (≈ 12.7 µg/mL) | 6.25 µM (≈ 2.15 µg/mL) | 25 µM (≈ 8.59 µg/mL) | 50 µM (≈ 17.2 µg/mL)
Cc1cc(C)cc(COc2ccc3c(C)c(CCC(=O)O)c(=O)oc3c2C)c1 | > 100 µM | 50 µM (≈ 19 µg/mL) | 50 µM (≈ 19 µg/mL) | 9.4 µM (≈ 3.58 µg/mL) | > 50 µM | > 50 µM | > 50 µM | > 100 µM | > 50 µM | > 50 µM | > 50 µM | > 50 µM | > 100 µM | > 50 µM | > 50 µM | 6.25 µM (≈ 2.38 µg/mL) | > 50 µM | > 50 µM
